The text below walks through data of patent US20250205344A1, “2,4-DIOXOTETRAHYDROPYRIMIDINYL DERATIVES AS DEGRONS IN PROTACS” (GLAXOSMITHKLINE INTELLECTUAL PROPERTY DEVELOPMENT LIMITED, priority 2022, published 2025).

Molecules are shown by their SMILES. Counter-ions that a name gives are not always drawn. Where only a bound is given, the exact number is not on record here.

In the experiment the target is T1, Androgen Receptor (Homo sapiens, UniProt P10275, T878A).
T1 construct: the AR gene was modified, using CRISPR/Cas9 editing, so the expressed AR protein included an 11 amino acid HiBiT tag; endogenous in cells; host or cells: clonal LnCaP-derived line, AR gene edited by CRISPR/Cas9
In words: Androgen Receptor Degradation Assay (Nano-Glo HiBiT). The experiment is classed as cell-based. Conditions: LNCaP, 18 h, HiBiT-tagged AR in human LnCaP cells, read-out: mean asymptote max. The essentials:
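LnCaP cells with CRISPR-knocked-in N-terminal HiBiT-tagged AR (10,000/well) treated 18 h at 37 °C with PROTACs over 11 threefold concentrations; lytic HiBiT luminescence normalised to DMSO (0%) and cell-free (100%) controls. Relative DC50 = 4-parameter fit inflection; absolute DC50 = 50% degradation interpolation; Dmax = maximum observed degradation.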
(In general: The HiBiT peptide binds its large partner to form an active luciferase.)

T1 sequence (P10275 whole entry T878A): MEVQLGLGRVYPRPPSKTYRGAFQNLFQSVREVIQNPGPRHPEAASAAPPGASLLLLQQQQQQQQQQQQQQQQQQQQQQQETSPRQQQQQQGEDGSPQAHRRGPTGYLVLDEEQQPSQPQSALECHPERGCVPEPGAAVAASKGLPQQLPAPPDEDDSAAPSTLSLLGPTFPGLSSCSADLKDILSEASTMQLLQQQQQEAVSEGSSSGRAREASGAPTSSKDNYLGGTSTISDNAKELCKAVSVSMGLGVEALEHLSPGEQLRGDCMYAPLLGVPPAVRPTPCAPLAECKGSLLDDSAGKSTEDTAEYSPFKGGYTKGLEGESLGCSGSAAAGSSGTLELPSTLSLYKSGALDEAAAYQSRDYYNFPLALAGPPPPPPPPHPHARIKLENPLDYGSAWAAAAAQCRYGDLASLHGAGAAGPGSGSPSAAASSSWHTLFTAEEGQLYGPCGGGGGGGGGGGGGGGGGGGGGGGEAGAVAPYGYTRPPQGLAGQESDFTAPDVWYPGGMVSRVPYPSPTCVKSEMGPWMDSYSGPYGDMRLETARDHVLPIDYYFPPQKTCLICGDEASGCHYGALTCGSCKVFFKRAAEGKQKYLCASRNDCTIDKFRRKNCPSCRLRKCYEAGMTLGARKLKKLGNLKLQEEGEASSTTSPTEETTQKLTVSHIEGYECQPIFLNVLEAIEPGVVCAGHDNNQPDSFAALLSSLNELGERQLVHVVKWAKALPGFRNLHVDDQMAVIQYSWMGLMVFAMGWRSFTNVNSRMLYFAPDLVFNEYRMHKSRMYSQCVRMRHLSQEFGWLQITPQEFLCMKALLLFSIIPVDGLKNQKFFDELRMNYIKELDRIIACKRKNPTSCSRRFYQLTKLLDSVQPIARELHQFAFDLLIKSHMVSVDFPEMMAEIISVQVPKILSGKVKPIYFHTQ
T1 sequence (Q96SW2 whole entry partner): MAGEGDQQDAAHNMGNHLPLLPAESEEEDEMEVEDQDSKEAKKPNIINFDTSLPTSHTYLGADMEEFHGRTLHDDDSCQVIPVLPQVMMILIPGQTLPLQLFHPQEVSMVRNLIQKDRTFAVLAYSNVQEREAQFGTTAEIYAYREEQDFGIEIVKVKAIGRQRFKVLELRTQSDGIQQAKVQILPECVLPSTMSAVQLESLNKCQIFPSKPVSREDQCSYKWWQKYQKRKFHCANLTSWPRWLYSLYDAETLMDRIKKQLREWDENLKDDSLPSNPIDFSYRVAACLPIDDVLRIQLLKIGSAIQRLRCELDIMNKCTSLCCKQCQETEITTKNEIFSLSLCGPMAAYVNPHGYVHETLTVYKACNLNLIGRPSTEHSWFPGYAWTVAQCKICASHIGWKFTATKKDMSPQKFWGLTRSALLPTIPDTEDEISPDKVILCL
T1 sequence (Q16531 whole entry partner): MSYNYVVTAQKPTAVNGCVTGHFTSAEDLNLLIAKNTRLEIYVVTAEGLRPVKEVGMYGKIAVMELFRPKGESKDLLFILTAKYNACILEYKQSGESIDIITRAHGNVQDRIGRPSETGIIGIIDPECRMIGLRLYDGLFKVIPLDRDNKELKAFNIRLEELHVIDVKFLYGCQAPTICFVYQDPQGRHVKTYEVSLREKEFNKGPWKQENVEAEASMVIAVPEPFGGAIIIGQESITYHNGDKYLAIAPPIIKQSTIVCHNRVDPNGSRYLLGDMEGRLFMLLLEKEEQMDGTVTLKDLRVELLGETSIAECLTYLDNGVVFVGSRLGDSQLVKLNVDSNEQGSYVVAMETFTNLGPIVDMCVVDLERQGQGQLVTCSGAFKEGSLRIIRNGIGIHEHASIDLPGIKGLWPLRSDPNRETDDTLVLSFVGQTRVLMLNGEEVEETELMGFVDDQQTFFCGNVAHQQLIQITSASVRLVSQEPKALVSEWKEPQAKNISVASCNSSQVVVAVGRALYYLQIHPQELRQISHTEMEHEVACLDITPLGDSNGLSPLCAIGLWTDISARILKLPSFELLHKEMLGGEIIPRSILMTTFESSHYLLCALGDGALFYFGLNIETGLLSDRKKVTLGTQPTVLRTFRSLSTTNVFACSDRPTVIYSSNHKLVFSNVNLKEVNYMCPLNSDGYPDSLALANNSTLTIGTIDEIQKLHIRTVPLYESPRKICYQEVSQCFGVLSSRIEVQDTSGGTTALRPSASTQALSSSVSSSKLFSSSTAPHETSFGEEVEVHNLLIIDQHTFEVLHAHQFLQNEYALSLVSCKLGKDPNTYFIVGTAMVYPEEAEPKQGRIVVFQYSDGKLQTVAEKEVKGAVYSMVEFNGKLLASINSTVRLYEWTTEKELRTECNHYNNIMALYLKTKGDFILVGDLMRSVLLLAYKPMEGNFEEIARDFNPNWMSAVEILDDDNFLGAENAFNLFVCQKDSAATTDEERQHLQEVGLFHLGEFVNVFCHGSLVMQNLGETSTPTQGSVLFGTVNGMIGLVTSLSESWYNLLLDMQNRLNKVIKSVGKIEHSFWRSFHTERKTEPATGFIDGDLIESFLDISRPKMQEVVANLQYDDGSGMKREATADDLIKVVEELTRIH

For `N#Cc1ccc(O[C@H]2CC[C@H](NC(=O)c3ccc(N4CCC(CN5CCC(n6ccc7c(N8CCC(=O)NC8=O)cncc76)CC5)CC4)nn3)CC2)cc1C(F)(F)F` [EAR45, N-((1r,4r)-4-(4-Cyano-3-(trifluoromethyl)phenoxy)cyclohexyl)-6-(4-((4-(4-(2,4-dioxotetrahydropyrimidin-1(2H)-yl)-1H-pyrrolo[2,3-c]pyridin-1-yl)piperidin-1-yl)methyl)piperidin-1-yl)pyridazine-3-carboxamide], the Dmax was at least 50%. Then `CC(C1CCN(c2ccc(C(=O)N[C@H]3CC[C@H](Oc4ccc(C#N)c(Cl)c4)CC3)nn2)CC1)N1CCC(n2ccc3c(N4CCC(=O)NC4=O)cncc32)CC1` (stereo partly shown) [EAR135, N-((1r,4r)-4-(3-Chloro-4-cyanophenoxy)cyclohexyl)-6-(4-(1-(4-(4-(2,4-dioxotetrahydropyrimidin-1(2H)-yl)-1H-pyrrolo[2,3-c]pyridin-1-yl)piperidin-1-yl)ethyl)piperidin-1-yl)pyridazine-3-carboxamide], with at least 50%. With `N#Cc1ccc(O[C@H]2CC[C@H](NC(=O)c3cnc(N4CCC(CN5CCC(n6ncc7c(N8CCC(=O)NC8=O)cc(F)cc76)CC5)CC4)nc3)CC2)cc1Cl` [AR205, N-((1r,4r)-4-(3-Chloro-4-cyanophenoxy)cyclohexyl)-2-(4-((4-(4-(2,4-dioxotetrahydropyrimidin-1(2H)-yl)-6-fluoro-1H-indazol-1-yl)piperidin-1-yl)methyl)piperidin-1-yl)pyrimidine-5-carboxamide], the Dmax was at least 50%. Then `N#Cc1ccc(O[C@H]2CC[C@H](NC(=O)c3ccc(N4CCC(CN5CCC(n6ccc7c(N8CCC(=O)NC8=O)cccc76)CC5)CC4)nc3)CC2)cc1C(F)(F)F` [AR12, N-((1r,4r)-4-(4-Cyano-3-(trifluoromethyl)phenoxy)cyclohexyl)-6-(4-((4-(4-(2,4-dioxotetrahydropyrimidin-1(2H)-yl)-1H-indol-1-yl)piperidin-1-yl)methyl)piperidin-1-yl)nicotinamide], with at least 50%; and `N#Cc1ccc(O[C@H]2CC[C@H](NC(=O)c3cnc(N4CCC(CN5CCC(n6ncc7c(N8CCC(=O)NC8=O)cncc76)CC5)CC4)nc3)CC2)cc1Cl` [AR216, N-((1r,4r)-4-(3-chloro-4-cyanophenoxy)cyclohexyl)-2-(4-((4-(4-(2,4-dioxotetrahydropyrimidin-1(2H)-yl)-1H-pyrazolo[3,4-c]pyridin-1-yl)piperidin-1-yl)methyl)piperidin-1-yl)pyrimidine-5-carboxamide], with at least 50%; and `N#Cc1ccc(O[C@H]2CC[C@H](NC(=O)c3ccc(N4CCC(CN5CCC(n6ccc7c(N8CCC(=O)NC8=O)ccnc76)CC5)CC4)nn3)CC2)cc1Cl` [EAR149, N-((1r,4r)-4-(3-Chloro-4-cyanophenoxy)cyclohexyl)-6-(4-((4-(4-(2,4-dioxotetrahydropyrimidin-1(2H)-yl)-1H-pyrrolo[2,3-b]pyridin-1-yl)piperidin-1-yl)methyl)piperidin-1-yl)pyridazine-3-carboxamide], with at least 50%. On to `N#Cc1ccc(O[C@H]2CC[C@H](NC(=O)c3ccc(N4CCC5(CC(CN6CCC(n7ncc8c(N9CCC(=O)NC9=O)cccc87)CC6)C5)C4)nn3)CC2)cc1Cl` (stereo partly shown) [EAR233, N-((1r,4r)-4-(3-chloro-4-cyanophenoxy)cyclohexyl)-6-(2-((4-(4-(2,4-dioxotetrahydropyrimidin-1(2H)-yl)-1H-indazol-1-yl)piperidin-1-yl)methyl)-6-azaspiro[3.4]octan-6-yl)pyridazine-3-carboxamide], for which the Dmax is at least 50%.

For `N#Cc1ccc(O[C@H]2CC[C@H](NC(=O)c3cnc(N4CCC(CN5CCC(n6ccc7c(N8CCC(=O)NC8=O)nccc76)CC5)CC4)cn3)CC2)cc1C(F)(F)F` [EAR181, N-((1r,4r)-4-(4-Cyano-3-(trifluoromethyl)phenoxy)cyclohexyl)-5-(4-((4-(4-(2,4-dioxotetrahydropyrimidin-1(2H)-yl)-1H-pyrrolo[3,2-c]pyridin-1-yl)piperidin-1-yl)methyl)piperidin-1-yl)pyrazine-2-carboxamide], the Dmax is at least 50%. Take `N#Cc1ccc(O[C@H]2CC[C@H](NC(=O)c3ccc(C4CCN(C(=O)CN5CCC(n6ccc7c(N8CCC(=O)NC8=O)cccc76)CC5)CC4)cc3)CC2)cc1Cl` [AR1, N-((1r,4r)-4-(3-Chloro-4-cyanophenoxy)cyclohexyl)-4-(1-(2-(4-(4-(2,4-dioxotetrahydropyrimidin-1(2H)-yl)-1H-indol-1-yl)piperidin-1-yl)acetyl)piperidin-4-yl)benzamide]: the Dmax was at least 50%. For `N#Cc1ccc(O[C@H]2CC[C@H](NC(=O)c3ccc(N4CCC(CN5CCC(n6ccc7c(N8CCC(=O)NC8=O)cccc76)CC5)CC4)nc3)CC2)cc1Cl` [EAR13, N-((1r,4r)-4-(3-Chloro-4-cyanophenoxy)cyclohexyl)-6-(4-((4-(4-(2,4-dioxotetrahydropyrimidin-1(2H)-yl)-1H-indol-1-yl)piperidin-1-yl)methyl)piperidin-1-yl)nicotinamide], the Dmax is at least 50%. For `N#Cc1ccc(O[C@H]2CC[C@H](NC(=O)c3ccc(N4CCC(CN5CCC(n6ncc7c(N8CCC(=O)NC8=O)cccc76)CC5)CC4)nc3)CC2)cc1C(F)(F)F` [EAR40, N-((1r,4r)-4-(4-Cyano-3-(trifluoromethyl)phenoxy)cyclohexyl)-6-(4-((4-(4-(2,4-dioxotetrahydropyrimidin-1(2H)-yl)-1H-indazol-1-yl)piperidin-1-yl)methyl)piperidin-1-yl)nicotinamide hydrochloride], the Dmax was at least 50%. `N#Cc1ccc(O[C@H]2CC[C@H](NC(=O)c3ccc(N4CCC(CN5CCC(n6ccc7c(N8CCC(=O)NC8=O)nccc76)CC5)CC4)cc3)CC2)cc1Cl` [EAR197, N-((1r,4r)-4-(3-Chloro-4-cyanophenoxy)cyclohexyl)-4-(4-((4-(4-(2,4-dioxotetrahydropyrimidin-1(2H)-yl)-1H-pyrrolo[3,2-c]pyridin-1-yl)piperidin-1-yl)methyl)piperidin-1-yl)benzamide]: the Dmax is at least 50%. For `CC(C)n1ccc2c(N3CCC(=O)NC3=O)cc(C(=O)N(C)CC3CCN(CCCCOc4ccc(C(=O)N[C@H]5CC[C@H](Oc6ccc(C#N)c(Cl)c6)CC5)nc4)CC3)cc21` [EAR65, N-((1-(4-((6-(((1r,4r)-4-(3-Chloro-4-cyanophenoxy)cyclohexyl)carbamoyl)pyridin-3-yl)oxy)butyl)piperidin-4-yl)methyl)-4-(2,4-dioxotetrahydropyrimidin-1(2H)-yl)-1-isopropyl-N-methyl-1H-indole-6-carboxamide], the Dmax is at least 50%.

In the case of `CC(C)n1ccc2c(N3CCC(=O)NC3=O)cc(C(=O)N3CCC4(CCN(Cc5ccc(C(=O)N[C@H]6CC[C@H](Oc7ccc(C#N)c(Cl)c7)CC6)cc5)CC4)CC3)cc21` [EAR84, N-((1r,4r)-4-(3-Chloro-4-cyanophenoxy)cyclohexyl)-4-((9-(4-(2,4-dioxotetrahydropyrimidin-1(2H)-yl)-1-isopropyl-1H-indole-6-carbonyl)-3,9-diazaspiro[5.5]undecan-3-yl)methyl)benzamide], the Dmax was at least 50%.

For the molecule `N#Cc1ccc(O[C@H]2CC[C@H](NC(=O)c3ccc(N4CCC(CN5CCC(n6ncc7c(N8CCC(=O)NC8=O)nccc76)CC5)CC4)cc3)CC2)cc1Cl` [EAR199, N-((1r,4r)-4-(3-Chloro-4-cyanophenoxy)cyclohexyl)-4-(4-((4-(4-(2,4-dioxotetrahydropyrimidin-1(2H)-yl)-1H-pyrazolo[4,3-c]pyridin-1-yl)piperidin-1-yl)methyl)piperidin-1-yl)benzamide], the Dmax is at least 50%. Regarding `CN(C)C(=O)c1cc(N2CCC(=O)NC2=O)c2ccn(C3CCN(CC4CCN(c5ccc(C(=O)N[C@H]6CC[C@H](Oc7ccc(C#N)c(Cl)c7)CC6)nn5)CC4)CC3)c2c1` [EAR35, 1-(1-((1-(6-(((1r,4r)-4-(3-Chloro-4-cyanophenoxy)cyclohexyl)carbamoyl)pyridazin-3-yl)piperidin-4-yl)methyl)piperidin-4-yl)-4-(2,4-dioxotetrahydropyrimidin-1(2H)-yl)-N,N-dimethyl-1H-indole-6-carboxamide], the Dmax is at least 50%.

In the case of `C[C@@H]1CN(C(=O)Nc2cnc(N3CCC(CN4CCC(n5ccc6c(N7CCC(=O)NC7=O)cccc65)CC4)CC3)nc2)[C@@H](C)CN1c1ccc(C#N)c(Cl)c1` [EAR116, (2S,5R)-4-(3-Chloro-4-cyanophenyl)-N-(2-(4-((4-(4-(2,4-dioxotetrahydropyrimidin-1(2H)-yl)-1H-indol-1-yl)piperidin-1-yl)methyl)piperidin-1-yl)pyrimidin-5-yl)-2,5-dimethylpiperazine-1-carboxamide], the Dmax was at least 50%. As for `CC1(C)[C@H](NC(=O)c2ccc(N3CCC(CN4CCC(n5ncc6c(N7CCC(=O)NC7=O)nccc65)CC4)CC3)nc2)C(C)(C)[C@H]1Oc1cnc(C#N)c(Cl)c1` [EAR257, N-((1r,3r)-3-((5-Chloro-6-cyanopyridin-3-yl)oxy)-2,2,4,4-tetramethylcyclobutyl)-6-(4-((4-(4-(2,4-dioxotetrahydropyrimidin-1(2H)-yl)-1H-pyrazolo[4,3-c]pyridin-1-yl)piperidin-1-yl)methyl)piperidin-1-yl)nicotinamide], the Dmax was at least 50%. Then `N#Cc1ccc(O[C@H]2CC[C@H](NC(=O)c3ccc(N4CCC(CN5CCC(n6ccc7c(N8CCC(=O)NC8=O)cncc76)CC5)CC4)nn3)CC2)cc1Cl` [EAR48, N-((1r,4r)-4-(3-Chloro-4-cyanophenoxy)cyclohexyl)-6-(4-((4-(4-(2,4-dioxotetrahydropyrimidin-1(2H)-yl)-1H-pyrrolo[2,3-c]pyridin-1-yl)piperidin-1-yl)methyl)piperidin-1-yl)pyridazine-3-carboxamide hydrochloride], with at least 50%.
